Data from patent US20180002400A1, “SHORT PEPTIDE-BASED THERAPEUTIC AGENT AND MEDICINAL COMPOSITION INCLUDING THE SAME FOR INHIBITING ACTIVITIES OF CANCER CELLS” (NATIONAL CHENG KUNG UNIVERSITY, priority 2015, published 2018).

Tests used:
breast cancer MB231 cell [1] = assay: MTT cell viability (cell toxicity) of cancer cells co-cultured with short peptides; format: cell-based, human; conditions: MB231 co-cultured with increasing amount of short peptide for 24 hours or 48 hours; FIG. 1B
Method: After the human breast cancer MB231 cell of Example 2 was co-cultured with the short peptides RI37, GI40 and KT44 of Example 1 for 24 hours or 48 hours, the cell toxicity was analyzed by using MTT [3-(4,5-dimethylthiazol-2-yl)-2,5-[…] tetrazolium bomide] (Sigma). The transparent and colorless tetrazolium salt of MTT was degraded by mitochondrial dehydrogenase in live cells and converted to blue formazan crystals. Based on the cell viability of the cell in the absence of the short peptides of Example 1 as 100%, the influence of the cancer cell proliferation could be determined by using the short peptides.

[2] = system: nasopharyngeal cancer HONE1 cell; assay: Cancer cell migration (Boyden chamber) induced by euPTX3; format: cell-based, human; conditions: HONE1; short peptide 10 μg/mL + euPTX3 2.5 μg/mL; FIG. 3C left panel
Method: (§1) The cell density 5×10^4 cells/well of the breast cancer MB231 cell, the lung cancer A549 cell and the nasopharyngeal cancer HONE1 cell were seeded into each upper insert of 24-well plate (containing 8-μm pore insert per well; BD Biosciences) for 19 hours, and each lower well was added with the short peptides RI37, GI40 and KT44 (10 μg/mL or 225 nM of the short peptide) and the polypeptide euPTX3 (2.5 μg/mL) of Example 1, for evaluating the influence of migration of the cancer cell of Example 2 using several short peptides of Example 1.
(§2) The cell density 5×10^4 cells/well of the breast cancer MB231 cell, the lung cancer A549 cell and the nasopharyngeal cancer HONE1 cell were seeded into each upper insert of Boyden chamber for 3 hours of cultivation.
(§3) And then, the medium in each upper insert was replaced by serum-free medium, and the medium in each lower well was added with the short peptides RI37, GI40, KT44 and the polypeptide euPTX3 of Example 1. The cells inside each upper insert were wiped with cotton swabs and removed after 16 hours of cultivation. Remaining cells that had migrated to the bottom of the insert membrane were stained by 4′,6-diamidino-2-phenylindole (DAPI; Invitrogen) and calculated under fluorescence microscopy with 200-fold magnification.

lung cancer A549 cell [3] = assay: as above; format: cell-based, human; conditions: A549; short peptide 10 μg/mL + euPTX3 2.5 μg/mL; FIG. 2C left panel
Method: as §1, §2, §3

[4] = system: drug-resistant breast cancer MB231R (MBR) cells; assay: as above; format: cell-based, human
Method: [The procedure below names another cell line; the source lists this cell line under the same test.] as §1, §2, §3

[5] = system: drug-resistant MB231R breast cancer; assay: Xenograft tumor model, CDDP-resistant MB231R cells in NOD-SCID mice; format: in vivo, mouse; conditions: for tumor growth (tumor size): 50 μg short peptide intratumorally twice weekly; for tumor growth (tumor size) / drug resistance generated by the tumor: FIG. 4D; for tumor metastasis and growth (images of tumors of various organs, epi-fluorescence radiance efficiency): IVIS imaging; for tumor metastasis (number of metastatic nodules per lung) / tumor growth (tumor weight per lung): sacrificed after ten weeks; for tumor metastasis (number of metastatic nodules per lung): FIG. 4E left panel; for tumor growth (tumor weight per lung): FIG. 4E right panel; for drug resistance generated by the tumor: 50 μg short peptide intratumorally twice weekly combined with CDDP 5 mg/kg i.p. once weekly
Method: Besides, 1×10^6 mCherry fluorescent protein-labeled CDDP-resistant human MDA-MB-231 cells (MB231R; ATCC CRL-2539) were inoculated subcutaneously to the rear side of the back of six to eight-week-old female NOD-SCID immunodeficiency mice (purchased from Laboratory Animal Center of National Cheng Kung University). After 1 week of inoculation, the mice were intraperitoneally injected with 5 mg/kg of CDDP [dissolved in 1% (w/v) DMSO] or only 1% (w/v) of DMSO once weekly, and intratumorally uninjected or injected with 50 μg of the short peptides RI37, GI40 and KT44 of Example 1 twice weekly. The mice were sacrificed after ten weeks of inoculation. Spleen, kidneys, lungs and liver were obtained, tumor weight of those organs were measured according to 3 replications per group, and the metastatic activity and the number of metastatic nodules per organ were confirmed by IVIS Spectrum Imaging System. The tumor size was measured by a commercial external caliper, and the tumor volume (V) was calculated by the following formula (I). Each condition of the experiment was repeated at least thrice.

[6] = system: nasopharyngeal cancer HONE1 cell; assay: Sphere formation (cancer stemness) induced by euPTX3; format: cell-based, human; conditions: short peptide 10 μg/mL or 225 nM + euPTX3 2.5 μg/mL, 2 weeks, FIG. 3A
Method: (§4) Each well of the multi-well plate with ultra-low attachment surface (Corning Inc.) was inoculated with the cell density 5×10^3 cells/well of the breast cancer MB231 cell, the lung cancer A549 cell and the nasopharyngeal cancer HONE1 cell, all of which were co-cultured with the short peptides R137, GI40, KT44 (10 μg/mL or 225 nM of the short peptide) and the polypeptide euPTX3 (2.5 μg/mL) of Example 1 in serum-free medium DMEM/F12 (Gibco) [containing B27 (Invitrogen), 20 ng/mL of epidermal growth factor (EGF; Abcam) and 10 ng/mL of basic Fibroblast Growth Factor (bFGF; Peprotech)]. After 2 weeks of cultivation, the cell spheres were observed by optical microscopy.

breast cancer MB231 cell [7] = assay: as above; format: cell-based, human; conditions: short peptide 10 μg/mL or 225 nM + euPTX3 2.5 μg/mL, 2 weeks, FIG. 1C
Method: as §4

[8] = system: drug-resistant breast cancer MB231R (MBR) cells; assay: Cancer cell invasion (matrigel-coated insert) induced by euPTX3; format: cell-based, human
[9] = system: nasopharyngeal cancer HONE1 cell; assay: as above; format: cell-based, human; conditions: HONE1; short peptide 10 μg/mL + euPTX3 2.5 μg/mL; FIG. 3C right panel
Method: (§5) The cell density 5×10^4 cells/well of the breast cancer MB231 cell, the lung cancer A549 cell and the nasopharyngeal cancer HONE1 cell were seeded into each upper insert of 24-well plate (containing 8-μm pore insert per well; BD Biosciences), the upper insert and the lower well were separated by the polyethelene terephthalate membrane coated with matrigel (purchased from BD Bioscience), and cultured for 3 hours.
(§6) Next, the medium in each upper insert was replaced by serum-free medium, and the medium in each lower well was added with the short peptides RI37, GI40, KT44 and the polypeptide euPTX3 and pPTX3/C of Example 1. The cells inside each upper insert were wiped with cotton swabs and removed after 16 hours of cultivation. Remaining cells that had migrated to the bottom of the insert membrane were stained by 4′, 6-diamidino-2-phenylindole (DAPI; Invitrogen) and calculated under fluorescence microscopy with 200-fold magnification.

lung cancer A549 cell [10] = assay: as above; format: cell-based, human; conditions: A549; short peptide 10 μg/mL + euPTX3 2.5 μg/mL; FIG. 2C right panel
Method: as §5, §6

[11] = breast cancer cells, short peptide 10 μg/mL + euPTX3 2.5 μg/mL, FIG. 1E left panel
[12] = breast cancer cells, short peptide 10 μg/mL + euPTX3 2.5 μg/mL, FIG. 1E right panel
[13] = MB231R (MBR), identical molecular number: euPTX3 2.5 μg/mL, RI37 3.7 μg/mL, GI40 4 μg/mL, pPTX3/C 10 μg/mL, FIG. 5B left panel
[14] = MB231R (MBR), identical molecular number: euPTX3 2.5 μg/mL, RI37 3.7 μg/mL, GI40 4 μg/mL, pPTX3/C 10 μg/mL, FIG. 5B right panel

Row | Substance | cell viability (breast cancer MB231 cell [1]) | migrated cell numbers induced by the polypeptide euPTX3 [2] | migrated cell numbers induced by the polypeptide euPTX3 (lung cancer A549 cell [3]) | migrated cell numbers induced by the polypeptide euPTX3 [4, 11] | tumor growth (tumor size) [5] | metastatic nodules in organs (imaging) ([5]; FIG. 4F) | tumor metastasis and growth (images of tumors of various organs, epi-fluorescence radiance efficiency) ([5]; FIG. 4F) | tumor metastasis (number of metastatic nodules per lung) [5] | tumor growth (tumor weight per lung) [5] | number of spheres induced by the polypeptide euPTX3 [6] | number of spheres induced by the polypeptide euPTX3 (breast cancer MB231 cell [7]) | invasive cell numbers induced by the polypeptide euPTX3 [8, 12] | invasive cell numbers induced by the polypeptide euPTX3 [9] | invasive cell numbers induced by the polypeptide euPTX3 (lung cancer A549 cell [10]) | migrated cell numbers induced by the polypeptide euPTX3 [4, 13] | drug resistance generated by the tumor [5] | invasive cell numbers induced by the polypeptide euPTX3 [8, 14]
1 | KT44: artificially synthetic peptide having the amino acid sequence listed as SEQ ID NO:3 (KLVAEAMVSLGRWTHLCGTWNSEEGLTSLWVNGELAATTVEMAT; The 255th amino acid to 298th amino acid of Human sapiens PTX3 (KT44)) | no significant influence on the cell viability | could not inhibit the migrated cell numbers | could not inhibit the migrated cell numbers | could not inhibit the migrated cell numbers | could not significantly inhibit the tumor growth | metastatic nodules was found in lungs | could not significantly inhibit tumor metastasis and growth | could not significantly inhibit tumor metastasis | could not significantly inhibit tumor metastasis and growth | could not inhibit the number of spheres | could not inhibit the number of spheres | could not inhibit the invasive cell numbers | could not inhibit the invasive cell numbers | could not inhibit the invasive cell numbers |  |  | 
2 | GI40: artificially synthetic short peptide having the amino acid sequence listed as SEQ ID NO:2, designed from human PTX3 (NP_002843.2) (GGGFDETLAFSGRLTGFNIWDSVLSNEEIRETGGAESCHI; The 320th amino acid to 359th amino acid of Human sapiens PTX3 (GI40)) | no significant influence on the cell viability | could effectively inhibit the migrated cell numbers | could effectively inhibit the migrated cell numbers | could effectively inhibit the migrated cell numbers | could inhibit tumor growth |  | could inhibit tumor metastasis and growth | could inhibit tumor metastasis | could inhibit tumor metastasis and growth | could effectively inhibit the number of spheres | could effectively inhibit the number of spheres | could effectively inhibit the invasive cell numbers | could effectively inhibit the invasive cell numbers | could effectively inhibit the invasive cell numbers | could effectively inhibit the migrated cell numbers | reduce the drug resistance | could effectively inhibit the invasive cell numbers
3 | RI37: artificially synthetic short peptide having the amino acid sequence listed as SEQ ID NO:1, designed from human PTX3 (NP_002843.2) (RPMRLESFSACIWVKATDVLNKTILFSYGTKRNPYEI; The 200th amino acid to 236th amino acid of Human sapiens PTX3 (RI37)) | no significant influence on the cell viability | could effectively inhibit the migrated cell numbers | could effectively inhibit the migrated cell numbers | could effectively inhibit the migrated cell numbers | could inhibit tumor growth |  | could inhibit tumor metastasis and growth | could inhibit tumor metastasis | could inhibit tumor metastasis and growth | could effectively inhibit the number of spheres | could effectively inhibit the number of spheres | could effectively inhibit the invasive cell numbers | could effectively inhibit the invasive cell numbers | could effectively inhibit the invasive cell numbers | could effectively inhibit the migrated cell numbers | reduce the drug resistance | could effectively inhibit the invasive cell numbers
